The record followed here is patent publication US20220279787A1, “a-Substituted Phenyl Structure-Containing Compound, Preparation Method Thereof, and Disinfectant” (Henan Ruibo Pharmaceutical Technology Co. Ltd., priority 2019, published 2022).

Common to all, as to assay type: cell-based
Assay [1] relates to Bacillus subtilis var. niger spores ATCC 9372. In words: Suspension quantitative experiment, Bacillus subtilis var. niger spores. The following applies: for log reduction at 15000 µg/mL: Bacillus subtilis, ATCC9372, 0.5 h, read-out: Activity (killing logarithmic value); for Killing logarithmic value: suspension method. As for the experimental part:
(4) Operation Method of Suspension Quantitative Experiment:
(§1) a. The Bacillus subtilis var. niger spores ATCC 9372 freeze-dried strain tube was provided, opened up under an aseptic condition, and an appropriate amount of nutrient broth was added thereto with a capillary pipette. The strain was melted and dispersed by gently blowing and sucking several times. A test tube containing 5.0 mL-10.0 mL of nutrient broth medium was provided, and a small amount of bacterial suspension was dropped thereto, and incubated at 37° C. for 18 h-24 h. The bacterial suspension of the first generation culture was taken by using an inoculation loop.
b. The monoclonal strains of the first generation culture were picked out and placed in 3 mL of NMB. The strains were shaken in a constant temperature culture shaker for 3 h with a rotation speed of 220 rpm, obtaining a bacterial suspension with a concentration of (1-5)×10^8 CFU/mL.
(§2) c. 0.5 mL of bacterial suspension was added to a sterile test tube, and 0.5 mL of an organic interfering substance (0.03 mol/L PBS buffer) was then added thereto. They were mixed to be uniform, and placed in a water bath at 20° C.±1° C. for 5 min. 4.0 mL of the sample to be tested prepared in step (1) was drawn with a sterile pipette and injected into the mixed solution, mixed quickly, and the time was recorded immediately.
d. After the experimental bacteria interacted with the sample to be tested for the predetermined time. 0.5 mL of the mixture of the experimental bacteria and a disinfectant was drawn respectively and added to 4.5 mL of a neutralizer, and mixed to be uniform.
(§3) e. After 10 min of neutralization, 1.0 mL of the sample solution was drawn, and the number of viable bacteria was determined by viable count method. After the viable count method, sample solution of each pipette was inoculated onto 2 plates. When the number of colonies growing on the plate was large, 10-fold dilution was performed, and then the viable bacteria was cultured and counted.
h. At the same time, PBS buffer was used to replace the sample to be tested, and a parallel test was performed as a positive control.
f. All test samples were placed in a 37° C. incubator overnight, and the results were observed.
g. The experiment was repeated for 3 times, the concentration of viable bacteria (CFU/mL) of each group was calculated, and converted to logarithmic value (N), and then the killing logarithmic value was calculated according to the following equation:
(§4) Killing logarithmic value (KL)=the logarithmic value of the average viable bacteria concentration of the control group (No)−the logarithmic value of the viable bacteria concentration of the test group (Nx).
(§5) When calculating the killing logarithmic value, two digits after the decimal point was kept, and digital round-off was allowed.

In assay [2] the test system is Escherichia coli ATCC 25922. In words: Neutralizer identification experiment, Escherichia coli. As to the method: (§6) (4) Experimental Method for Selecting a Neutralizer:
(§7) Escherichia coli ATCC 25922 and Staphylococcus aureus ATCC 29213 were used as the experimental strains, and the concentration of the drug to be tested was set to be 2.5 g/L. The experiment was carried out according to the suspension quantitative sterilization procedure, with three repetitions, and six parallel groups:
(§8) Group I: 100 μL of a bacterial suspension (Escherichia coli ATCC 25922 with a concentration of 1×10^8 CFU/mL and Staphylococcus aureus ATCC 29213 with a concentration of 1×10^8 CFU/mL) interacted with 400 μL of the drug to be tested for 5 min; 50 μL of the mixed solution and 450 μL of PBS buffer were mixed to be uniform and diluted; the viable bacteria therein was counted;
(§9) Group II: 100 μL a bacterial suspension (Escherichia coli ATCC 25922 with a concentration of 1×10^8 CFU/mL and Staphylococcus aureus ATCC 29213 with a concentration of 1×10^8 CFU/mL) interacted with 400 μL of the drug to be tested for 5 min; 50 μL of the mixed solution and 450 μL of a neutralizer were mixed to be uniform and reacted for 10 min, and diluted; the viable bacteria therein was counted;
(§10) Group III: 10 μL of a bacterial suspension, 40 μL of sterile water, and 450 μL of a neutralizer were reacted for 10 min; the reaction solution was diluted, and the viable bacteria therein was counted;
(§11) Group V: 100 μL of bacterial suspension and 400 μL of a neutralizer were reacted for 5 min; 50 μL of the mixture and 450 μL of PBS buffer were mixed to be uniform, and then diluted; the viable bacteria therein was counted;
(§12) Group VI: a mixture of culture medium and PBS buffer was used as negative control.
(§13) Determination of the Results:
(§14) Group I had no bacteria growth or a small amount of bacteria growth;
(§15) Group II had bacteria growth, and the number of bacteria was not less than 100 CFU/mL;
(§16) the error rate of the number of bacteria between the Group III, Group IV, and Group V was less than or equal to 15%;
(§17) Group VI had no bacteria growth.

Assay [3] relates to Staphylococcus aureus ATCC 29213. Put plainly: Neutralizer identification experiment, Staphylococcus aureus. As for the experimental part:
as §6, §7, §8, §9, §10, §11, §12, §13, §14, §15, §16, §17

The subject of assay [4] is Escherichia coli ATCC 25922. Put plainly: Suspension quantitative sterilization experiment, Escherichia coli ATCC 25922. The following applies: suspension method, 6.25 g/L, action time 30 min. As to the method:
(§18) (5) Operation Method of Suspension Quantitative Experiment:
as §1, with “The” for “The Bacillus subtilis var. niger spores ATCC 9372”, “loop, and streaked and inoculated onto a nutrient agar medium plate, and incubated at 37° C. for 18 h-24 h. The typical colonies from the second generation culture was picked out, inoculated onto a nutrient agar slant, and incubated at 37° C. for 18 h-24 h, obtaining the third generation culture.” for “loop.”
(§19) b. The monoclonal strains of the third generation culture of Escherichia coli ATCC 25922, Staphylococcus aureus ATCC 29213, and Pseudomonas aeruginosa ATCC 27853 were picked out respectively and placed in 3 mL of NMB. The strains were shaken in a constant temperature culture shaker for 3 h with a rotation speed of 220 rpm, obtaining a bacterial suspension with a concentration of (1-5)×10^8 CFU/mL.
as §2
(§20) d. After the experimental bacteria interacted with the sample to be tested for the predetermined time of 1 min, 5 min, 15 min and 30 min. 0.5 mL of the mixture of the experimental bacteria and the sample to be tested was drawn respectively and added to 4.5 mL of a neutralizer, and mixed to be uniform.
as §3
(§21) f. At the same time, PBS buffer was used to replace the sample to be tested, and a parallel test was performed as a positive control.
(§22) g. All test samples were placed in a 37° C. incubator overnight, and the results were observed.
(§23) h. The experiment was repeated for 3 times, the concentration of viable bacteria (CFU/mL) of each group was calculated, and converted to logarithmic value (N), and then the killing logarithmic value was calculated according to the following equation:
as §4, §5

For assay [5], the system named is Staphylococcus aureus ATCC 29213. In words: Suspension quantitative sterilization experiment, Staphylococcus aureus ATCC 29213. The conditions noted are these: suspension method, 6.25 g/L, action time 30 min. As for the experimental part:
as §18
as §1, with “The” for “The Bacillus subtilis var. niger spores ATCC 9372”, “loop, and streaked and inoculated onto a nutrient agar medium plate, and incubated at 37° C. for 18 h-24 h. The typical colonies from the second generation culture was picked out, inoculated onto a nutrient agar slant, and incubated at 37° C. for 18 h-24 h, obtaining the third generation culture.” for “loop.”
as §19, §2, §20, §3, §21, §22, §23, §4, §5

The test system of assay [6] is Pseudomonas aeruginosa ATCC 27853. Put plainly: Suspension quantitative sterilization experiment, Pseudomonas aeruginosa ATCC 27853. The conditions noted are these: suspension method, 6.25 g/L, action time 30 min. As for the experimental part:
as §18
as §1, with “The” for “The Bacillus subtilis var. niger spores ATCC 9372”, “loop, and streaked and inoculated onto a nutrient agar medium plate, and incubated at 37° C. for 18 h-24 h. The typical colonies from the second generation culture was picked out, inoculated onto a nutrient agar slant, and incubated at 37° C. for 18 h-24 h, obtaining the third generation culture.” for “loop.”
as §19, §2, §20, §3, §21, §22, §23, §4, §5

Assay [7] has as its system Bacillus subtilis var. niger spores ATCC 9372. In words: Carrier immersion quantitative sterilization test. The following applies: carrier method. As for the experimental part: (5) Operation Method of the Carrier Immersion Quantitative Sterilization Test:
a. A sterile small plate was provided, and marked with the concentration of the sample to be tested injected. The sample to be tested of the corresponding concentration was drawn and injected into the plate in an amount of 5.0 mL per piece.
b. 3 pieces of Bacillus subtilis var. niger spores were placed on the plate by using a sterile tweezer, and soaked in the sample to be tested.
c. After the bacteria and drugs interacted for each predetermined time, the bacteria pieces were taken out by using a sterile tweezer and transferred into a test tube containing 5.0 mL of a neutralizer. The test tube was vibrated 80 times in the palm of the hand to wash the bacteria on the bacteria piece into the neutralization solution, left to stand for another 10 min to fully neutralize. Finally after further mixing, 1.0 mL of the mixture was drawn and directly inoculated onto the plate, 2 plates for each pipette, and the number of viable bacteria was determined.
d. Another plate was provided, and 10.0 mL of PBS buffer was injected instead of the sample to be tested. 2 pieces of bacteria were added thereto as the positive control group, and the subsequent test steps and viable bacteria culture and counting were the same as the above test groups.
e. All test samples were cultured overnight in a 37° C. incubator, and the results were observed.
f. The experiment was repeated for 3 times (including the control group), and the number of viable bacteria (CFU/piece) in each group was calculated and converted to a logarithmic value (N).

[8] abbreviates: 2.5 g/L drug reacted with neutralizer 10 min, then bacterial suspension added.
Setting [9] is: 2.5 g/L drug, 5 min, then mixed with PBS buffer.
The mark [10] stands for this setting: 2.5 g/L drug, 5 min, then neutralizer 10 min.

The structures appear in SMILES notation.

As for `CNC(=O)C(c1ccc(O)c(O)c1)c1ccco1` (stereo not shown) [Example 5, 2-(3,4-dihydroxyphenyl)-2-(2-furyl)-N-methylacetamide], in assay [1], the log reduction at 15000 µg/mL turned out to be 5.6. For the same molecule, the results for the “Viable bacteria count, Group IV” value in assay [2] (setting [8]) and in assay [3] (setting [8]) were 6 × 10^6 CFU/mL and 7 × 10^5 CFU/mL, respectively. Further, the “Viable bacteria count, Group I” value was 2 × 10^4 CFU/mL in assay [2] (setting [9]) and 3 × 10^4 CFU/mL in assay [3] (setting [9]). Besides, the figures for the “Viable bacteria count, Group II” value in assay [2] (setting [10]) and in assay [3] (setting [10]) were 400 CFU/mL and 5 × 10^4 CFU/mL, respectively.
With `CNC(=O)C(c1ccncc1)c1ccc(O)c(O)c1` (stereo not shown) [Example 6, 2-(3,4-dihydroxyphenyl)-N-methyl-2-(4-pyridyl)acetamide], the figures for the “Activity (killing logarithmic value)” value in assay [4], in assay [5] and in assay [6] were 1.64, 1.78 and 0.31, respectively. For the same molecule, the log reduction at 15000 µg/mL in assay [1] was 0.76.
The matching figures for `O=C(O)C(c1ccccc1)c1ccccc1` [Example 7, 2,2-diphenylacetic acid]: 1.02, 1.45, 1.29 and 1.97.
The matching figures for `O=C(O)C(c1ccc(O)c(O)c1)c1ccc(O)c(O)c1` [Example 8, 2,2-di-(3,4-dihydroxyphenyl)acetic acid]: 1.73, 0.91, 0.88 and 2.13.
`O=Cc1ccccc1C=O` [o-Phthalaldehyde solution, o-Phthalaldehyde]: the Killing logarithmic value was determined as 5.23 in assay [1] (5 g/L, 10 min); 5.31 in assay [1] (5 g/L, 20 min); 5.39 in assay [1] (5 g/L, 30 min); 5.41 in assay [1] (10 g/L, 10 min); 5.49 in assay [1] (10 g/L, 20 min); 5.57 in assay [1] (10 g/L, 30 min). In addition, the Killing logarithmic value in assay [1] (15 g/L, 10 min) came out at 5.53; in assay [1] (15 g/L, 20 min), 5.68; in assay [1] (15 g/L, 30 min), 5.71; in assay [7] (5 g/L, 1 h) it was 1.95; in assay [7] (5 g/L, 2 h), 3.23; in assay [7] (5 g/L, 3 h) it was 5.21. The Killing logarithmic value turned out to be 5.53 in assay [7] (5 g/L, 4 h); 2.19 in assay [7] (10 g/L, 1 h); 5.12 in assay [7] (10 g/L, 2 h); 5.26 in assay [7] (10 g/L, 3 h); 5.53 in assay [7] (10 g/L, 4 h); 3.23 in assay [7] (15 g/L, 1 h). The Killing logarithmic value in assay [7] (15 g/L, 2 h) came out at 5.21; in assay [7] (15 g/L, 3 h), 5.36; in assay [7] (15 g/L, 4 h) it was 5.53.
